Source: patent publication US11986480B2, “Heterocyclic compound” (TOHOKU UNIVERSITY, priority 2017, dated 2024)

Legend:
MetAP2 = molecular target: T1, MetAP2 (Homo sapiens, UniProt P50579); test: Test Example 3: HeLa cells, Western blot MetAP2/actin (Testing Method C); assay type: cell-based; settings: MetAP2, 0.1 uM, 24 hours, 1 or less = degradation promoted
T1 construct: endogenous in cells; host or cells: HeLa
Description: (§1) Test Example 3: Evaluation Using HeLa Cell (Testing Method C)
(§2) HeLa cells were inoculated to Dulbecco's Modified Eagle Medium (DMEM) and cultured for 24 hours. A test compound (specifically, compounds of Examples 47 to 52, 59 and 60) was added thereto at the final concentration shown in Table 2, followed by incubation for 24 hours under conditions of 37° C./5% CO2. The cells were washed with PBS three times and treated with a cell lysis solution containing a proteolytic enzyme inhibitor to obtain a cell extract. The cell extract was subjected to SDS-PAGE. After the electrophoresis, Brd4, FKBP12 or MetAP2 and actin were detected by Western blot. The ratio of the Brd4, FKBP12 or MetAP2/actin value of the drug-treated cells to the Brd4, FKBP12 or MetAP2/actin value of a control group in drug-untreated cells was regarded as an activity value. A value of 1 or less represents that degradation of Brd4, FKBP12 or MetAP2 was promoted.

FKBP12 = molecular target: T2, FKBP12 (Homo sapiens, UniProt P62942); test: Test Example 3: HeLa cells, Western blot FKBP12/actin (Testing Method C); assay type: cell-based; settings: FKBP12, 1 uM, 24 hours, 1 or less = degradation promoted
T2 construct: endogenous in cells; host or cells: HeLa
Description: as §1, §2

EmGFP-HaloTag [1] = test: Test Example 5: Atg5+/+ MEF cells overexpressing EmGFP-HaloTag, Western blot GFP/actin; assay type: cell-based, mouse; settings: Atg5 WT MEF, 10 μM
Description: (§3) Test Example 5: Evaluation Using Atg5KO MEF
(§4) Atg5^−/− mouse embryonic fibroblast (MEF) cells or Atg5^+/+ MEF cells were inoculated to Dulbecco's Modified Eagle Medium (DMEM) and cultured for 24 hours. Cells overexpressing EmGFP-HaloTag were obtained by transfection with a plasmid pCMV-EmGFP-HaloTag (SEQ ID NO: 1) encoding EmGFP-HaloTag. On the next day, the compound of Example 56 was added thereto at a final concentration of 10 μM, followed by incubation for 24 hours under conditions of 37° C./5% CO2. The cells were washed with PBS three times and treated with a cell lysis solution containing a proteolytic enzyme inhibitor to obtain a cell extract. The cell extract was subjected to SDS-PAGE. After the electrophoresis, GFP and actin were detected by Western blot. The ratio of the GFP/actin value of the drug-treated cells to the GFP/actin value of a control group in drug-untreated cells was regarded as an activity value. A value of 1 or less represents that degradation of EmGFP-HaloTag was promoted.

EmGFP-HaloTag [2] = test: Test Example 5: Atg5-/- MEF cells overexpressing EmGFP-HaloTag, Western blot GFP/actin; assay type: cell-based, mouse; settings: Atg5 KO MEF, 10 μM
Description: as §3, §4

EmGFP-HaloTag [3] = test: Test Example 1: HeLa cells stably expressing EmGFP-HaloTag, Western blot GFP/actin (Testing Method A); assay type: cell-based; settings: 10 uM, 24 hours, 1 or less = degradation promoted
Description: Test Example 1: Evaluation Method Using Cell Stably Expressing EmGFP-HaloTag (Testing Method A)
HeLa cells stably expressing EmGFP-HaloTag were inoculated to Dulbecco's Modified Eagle Medium (DMEM) and cultured for 24 hours. Then, a test compound (specifically, compounds of Examples 1 to 7, 9 to 11, 13 to 15, 17 to 20, 24 to 27, 29, 32 to 33, 36 to 42, 44 to 46 and 56) was added thereto at the final concentration shown in Table 2, followed by incubation for 24 hours under conditions of 37° C./5% CO2. The cells were washed with PBS three times and treated with a cell lysis solution containing a proteolytic enzyme inhibitor to obtain a cell extract. The cell extract was subjected to SDS-PAGE. After the electrophoresis, GFP and actin were detected by Western blot. The ratio of the GFP/actin value of the drug-treated cells to the GFP/actin value of a control group in drug-untreated cells was regarded as an activity value. A value of 1 or less represents that degradation of EmGFP-HaloTag was promoted.

T2 sequence (P62942 whole entry): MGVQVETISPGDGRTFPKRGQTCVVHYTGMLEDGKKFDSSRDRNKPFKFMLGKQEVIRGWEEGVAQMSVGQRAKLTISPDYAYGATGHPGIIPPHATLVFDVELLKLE
T1 sequence (P50579 whole entry): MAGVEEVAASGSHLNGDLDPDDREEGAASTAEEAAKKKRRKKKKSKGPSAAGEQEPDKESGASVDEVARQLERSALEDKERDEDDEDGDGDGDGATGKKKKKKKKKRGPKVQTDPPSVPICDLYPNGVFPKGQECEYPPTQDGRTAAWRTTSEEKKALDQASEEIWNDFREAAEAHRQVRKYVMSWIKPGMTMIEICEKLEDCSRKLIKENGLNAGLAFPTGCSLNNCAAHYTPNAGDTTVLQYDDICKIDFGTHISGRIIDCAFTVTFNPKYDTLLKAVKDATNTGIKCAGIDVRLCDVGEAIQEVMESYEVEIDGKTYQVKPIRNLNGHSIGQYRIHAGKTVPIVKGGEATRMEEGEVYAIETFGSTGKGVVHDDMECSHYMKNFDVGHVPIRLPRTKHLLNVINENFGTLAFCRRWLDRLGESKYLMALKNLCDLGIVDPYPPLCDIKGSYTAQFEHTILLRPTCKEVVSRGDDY

**Q.** Which “Activity value (MetAP2/actin of drug-treated cells relative to drug-untreated control)” value (MetAP2) does the source give for CO[C@@H]1[C@H](OC(=O)NCCCOCCOCCOCCCNC(=O)[C@H](CSc2nc3c(=O)[nH]c(N)nc3n2Cc2ccc(F)cc2)NC(C)=O)CC[C@]2(CO2)[C@H]1[C@@]1(C)O[C@@H]1CC=C(C)C [Example 60, (3R,5S,6R)-5-Methoxy-4-((2R,3R)-2-methyl-3-(3-methylbut-2-en-1-yl)oxiran-2-yl)-1-oxaspiro[2.5]oct-6-yl (3-(2-(2-(3-((N-acetyl-S-(2-amino-9-(4-fluorobenzyl)-6-oxo-6,9-dihydro-1H-purin-8-yl)-L-cysteinyl)amino)propoxy)ethoxy)ethoxy)propyl)carbamate] here?
**A.** 0.7

**Q.** Which “Activity value (FKBP12/actin of drug-treated cells relative to drug-untreated control)” value (FKBP12) does the source give for CCC(C)(C)C(=O)C(=O)N1CCCCC1C(=O)O[C@H](CCc1ccc(OC)c(OC)c1)c1cccc(NC(=O)CCC(=O)NCCCOCCOCCOCCCNC(=O)[C@H](CSc2nc3c(=O)[nH]c(N)nc3n2Cc2ccc(F)cc2)NC(C)=O)c1 (stereo partly drawn) [Example 59, (1R)-1-(3-((18-((N-Acetyl-S-(2-amino-9-(4-fluorobenzyl)-6-oxo-6,9-dihydro-1H-purin-8-yl)-L-cysteinyl)amino)-4-oxo-9,12,15-trioxa-5-azaoctadecan-1-oyl)amino)phenyl)-3-(3,4-dimethoxyphenyl)propyl 1-(3,3-dimethyl-2-oxopentanoyl)piperidine-2-carboxylate] here?
**A.** 0.5

**Q.** CC(=O)N[C@@H](CSc1nc2c(=O)[nH]c(N)nc2n1Cc1ccc(F)cc1)C(=O)NCCOCCOCCOCCOCCOCCCCCCCl [Example 56, N^2-Acetyl-S-(2-amino-9-(4-fluorobenzyl)-6-oxo-6,9-dihydro-1H-purin-8-yl)-N-(21-chloro-3,6,9,12,15-pentaoxahenicos-1-yl)-L-cysteinamide] was tested. Which “Activity value (GFP/actin of drug-treated cells relative to drug-untreated control)” value (EmGFP-HaloTag [1]; 0h) did it give?
**A.** 1.0

**Q.** And the “Activity value (GFP/actin of drug-treated cells relative to drug-untreated control)” value (EmGFP-HaloTag [1]; 24 h)?
**A.** 0.3

**Q.** And the “Activity value (GFP/actin of drug-treated cells relative to drug-untreated control)” value (EmGFP-HaloTag [2]; 0h)?
**A.** 1.0

**Q.** What about the “Activity value (GFP/actin of drug-treated cells relative to drug-untreated control)” value (EmGFP-HaloTag [2]; 24 h) of the same compound?
**A.** 1.1

**Q.** What about the “Activity value (GFP/actin of drug-treated cells relative to drug-untreated control)” value (EmGFP-HaloTag [3]) of the same compound?
**A.** 0.55
